Assay results as given in US9695155B2, “Herbicidal substituted pyrimidinyloxy benzene compounds” (E. I. DU PONT DE NEMOURS AND COMPANY, priority 2013, dated 2017).

Key:
galium [1] = assay: Test D preemergence; assay type: in vivo, Galium aparine; details: Galium, pre-emergence
From the text: (§1) Seeds of plant species selected from bluegrass (annual bluegrass, Poa annua), blackgrass (Alopecurus myosuroides), canarygrass (littleseed canarygrass, Phalaris minor), chickweed (common chickweed, Stellaria media), galium (catchweed bedstraw, Galium aparine), bromegrass, downy (downy bromegrass, Bromus tectorum), field poppy (Papaver rhoeas), field violet (Viola arvensis), green foxtail (Setaria viridis), deadnettle (henbit deadnettle, Lamium amplexicaule), Italian ryegrass (Lolium multiflorum), kochia (Kochia scoparia), lambsquarters (Chenopodium album), oilseed rape (Brassica napus), pigweed (Amaranthus retroflexus), chamomile (scentless chamomile, Matricaria inodora), Russian thistle (Salsola kali), speedwell (bird's-eye speedwell, Veronica persica), spring barley (Hordeum vulgare), spring wheat (Triticum aestivum), wild buckwheat (Polygonum convolvulus), wild mustard (Sinapis arvensis), wild oat (Avena fatua), wild radish (Raphanus raphanistrum), windgrass (Apera spica-venti), winter barley (Hordeum vulgare), and winter wheat (Triticum aestivum) were planted into a silt loam soil and treated preemergence with test chemicals formulated in a non-phytotoxic solvent mixture which included a surfactant.
(§2) At the same time, these species were planted in pots containing Redi-Earth® planting medium (Scotts Company, 14111 Scottslawn Road, Marysville, Ohio 43041) comprising spaghnum peat moss, vermiculite, wetting agent and starter nutrients and treated with postemergence applications of the test chemicals formulated in the same manner. Plants ranged in height from 2 to 18 cm (1- to 4-leaf stage). Treated plants and controls were maintained in a controlled growth environment for 7 to 21 days after which time all species were compared to controls and visually evaluated. Plant response ratings, summarized in Table D, are based on a scale of 0 to 100 where 0 is no effect and 100 is complete control. A dash (-) response means no test result.

galium [2] = assay: Test D postemergence; assay type: in vivo, Galium aparine; details: Galium, post-emergence
From the text: as §1, §2

canarygrass = assay: Test D preemergence; assay type: in vivo, Phalaris minor; details: Phalaris minor, pre-emergence
From the text: as §1, §2

pigweed [3] = assay: Test D preemergence; assay type: in vivo, Amaranthus retroflexus; details: Amaranthus retroflexus, pre-emergence
From the text: as §1, §2

green foxtail = assay: Test D preemergence; assay type: in vivo, Setaria viridis; details: Setaria viridis, pre-emergence
From the text: as §1, §2

field violet = assay: Test D postemergence; assay type: in vivo, Viola arvensis; details: Viola arvensis, post-emergence
From the text: as §1, §2

pigweed [4] = assay: Test D postemergence; assay type: in vivo, Amaranthus retroflexus; details: Amaranthus retroflexus, post-emergence
From the text: as §1, §2

wild radish = assay: Test D preemergence; assay type: in vivo, Raphanus raphanistrum; details: Raphanus raphanistrum, pre-emergence
From the text: as §1, §2

oilseed rape = assay: Test D preemergence; assay type: in vivo, Brassica napus; details: Brassica napus, pre-emergence
From the text: as §1, §2

speedwell = assay: Test D preemergence; assay type: in vivo, Veronica persica; details: Veronica persica, pre-emergence
From the text: as §1, §2

Q: What does the source list for FC(F)(F)COc1cnn(-c2ccccc2Oc2ncc(Cl)cn2)c1 [Compound 138, 5-chloro-2-[2-[4-(2,2,2-trifluoroethoxy)-1H-pyrazol-1-yl]phenoxy]pyrimidine]?
A: pest or weed control at 16 g/ha (galium [1]; 16 g ai/ha, scale 0 (no effect) to 100 (complete control), read-out: Plant response rating, Galium): 25%; pest or weed control at 31 g/ha (galium [1]; 31 g ai/ha, scale 0-100, read-out: Plant response rating, Galium): 40%; pest or weed control at 62 g/ha (galium [1]; 62 g ai/ha, scale 0-100, read-out: Plant response rating, Galium): 90%; pest or weed control at 125 g/ha (galium [1]; 125 g ai/ha, scale 0-100, read-out: Plant response rating, Galium): 100%; pest or weed control at 16 g/ha (galium [2]; 16 g ai/ha, scale 0-100, read-out: Plant response rating, Galium): 70%; pest or weed control at 31 g/ha (galium [2]; 31 g ai/ha, scale 0 to 100 (0 no effect, 100 complete control), read-out: Plant response rating, Galium): 70%; pest or weed control at 62 g/ha (galium [2]; 62 g ai/ha, scale 0 to 100 (0 no effect, 100 complete control), read-out: Plant response rating, Galium): 75%; pest or weed control at 125 g/ha (galium [2]; 125 g ai/ha, scale 0 to 100 (0 no effect, 100 complete control), read-out: Plant response rating, Galium): 75%; pest or weed control at 16 g/ha (canarygrass; 16 g ai/ha, scale 0 (no effect) to 100 (complete control), read-out: Plant response rating, Canarygrass): 10%; pest or weed control at 31 g/ha (canarygrass; 31 g ai/ha, scale 0-100, read-out: Plant response rating, Canarygrass): 10%; pest or weed control at 62 g/ha (canarygrass; 62 g ai/ha, scale 0-100, read-out: Plant response rating, Canarygrass): 20%; pest or weed control at 125 g/ha (canarygrass; 125 g ai/ha, scale 0-100, read-out: Plant response rating, Canarygrass): 40%; pest or weed control at 16 g/ha (pigweed [3]; 16 g ai/ha, scale 0 (no effect) to 100 (complete control), read-out: Plant response rating, Pigweed): 0%; pest or weed control at 31 g/ha (pigweed [3]; 31 g ai/ha, scale 0 (no effect) to 100 (complete control), read-out: Plant response rating, Pigweed): 25%; pest or weed control at 62 g/ha (pigweed [3]; 62 g ai/ha, scale 0-100, read-out: Plant response rating, Pigweed): 100%; pest or weed control at 125 g/ha (pigweed [3]; 125 g ai/ha, scale 0-100, read-out: Plant response rating, Pigweed): 100%; pest or weed control at 16 g/ha (green foxtail; 16 g ai/ha, scale 0 (no effect) to 100 (complete control), read-out: Plant response rating, Foxtail, Green): 0%; pest or weed control at 31 g/ha (green foxtail; 31 g ai/ha, scale 0-100, read-out: Plant response rating, Foxtail, Green): 0%; pest or weed control at 62 g/ha (green foxtail; 62 g ai/ha, scale 0-100, read-out: Plant response rating, Foxtail, Green): 20%; pest or weed control at 125 g/ha (green foxtail; 125 g ai/ha, scale 0-100, read-out: Plant response rating, Foxtail, Green): 100%; pest or weed control at 16 g/ha (field violet; 16 g ai/ha, scale 0-100, read-out: Plant response rating, Field Violet): 25%; pest or weed control at 31 g/ha (field violet; 31 g ai/ha, scale 0 to 100 (0 no effect, 100 complete control), read-out: Plant response rating, Field Violet): 50%; pest or weed control at 62 g/ha (field violet; 62 g ai/ha, scale 0 to 100 (0 no effect, 100 complete control), read-out: Plant response rating, Field Violet): 65%; pest or weed control at 125 g/ha (field violet; 125 g ai/ha, scale 0 to 100 (0 no effect, 100 complete control), read-out: Plant response rating, Field Violet): 75%; pest or weed control at 16 g/ha (pigweed [4]; 16 g ai/ha, scale 0-100, read-out: Plant response rating, Pigweed): 65%; pest or weed control at 31 g/ha (pigweed [4]; 31 g ai/ha, scale 0 to 100 (0 no effect, 100 complete control), read-out: Plant response rating, Pigweed): 70%; pest or weed control at 62 g/ha (pigweed [4]; 62 g ai/ha, scale 0 to 100 (0 no effect, 100 complete control), read-out: Plant response rating, Pigweed): 90%; pest or weed control at 125 g/ha (pigweed [4]; 125 g ai/ha, scale 0 to 100 (0 no effect, 100 complete control), read-out: Plant response rating, Pigweed): 90%; pest or weed control at 16 g/ha (wild radish; 16 g ai/ha, scale 0 (no effect) to 100 (complete control), read-out: Plant response rating, Radish, Wild): 90%; pest or weed control at 31 g/ha (wild radish; 31 g ai/ha, scale 0 (no effect) to 100 (complete control), read-out: Plant response rating, Radish, Wild): 85%; pest or weed control at 62 g/ha (wild radish; 62 g ai/ha, scale 0-100, read-out: Plant response rating, Radish, Wild): 70%; pest or weed control at 125 g/ha (wild radish; 125 g ai/ha, scale 0-100, read-out: Plant response rating, Radish, Wild): 85%; plant injury at 16 g/ha (oilseed rape; 16 g ai/ha, scale 0 (no effect) to 100 (complete control), read-out: Plant response rating, Oilseed Rape): 35%; plant injury at 31 g/ha (oilseed rape; 31 g ai/ha, scale 0-100, read-out: Plant response rating, Oilseed Rape): 30%; plant injury at 62 g/ha (oilseed rape; 62 g ai/ha, scale 0-100, read-out: Plant response rating, Oilseed Rape): 50%; plant injury at 125 g/ha (oilseed rape; 125 g ai/ha, scale 0-100, read-out: Plant response rating, Oilseed Rape): 65%; pest or weed control at 16 g/ha (speedwell; 16 g ai/ha, scale 0 (no effect) to 100 (complete control), read-out: Plant response rating, Speedwell): 70%; pest or weed control at 31 g/ha (speedwell; 31 g ai/ha, scale 0 (no effect) to 100 (complete control), read-out: Plant response rating, Speedwell): 100%; pest or weed control at 62 g/ha (speedwell; 62 g ai/ha, scale 0-100, read-out: Plant response rating, Speedwell): 100%; pest or weed control at 125 g/ha (speedwell; 125 g ai/ha, scale 0-100, read-out: Plant response rating, Speedwell): 100%
